# Reference: US11555072B2, “A33 antibody compositions and methods of using the same in radioimmunotherapy” (MEMORIAL SLOAN KETTERING CANCER CENTER, priority 2017, dated 2023)
# Test system: T cells
# Assay: In vivo T cell proliferation assay
# Details: CFSE-labeled PBMCs + Colo205 s.c. in DKO mice, antibody i.v. next day, tumors analyzed 4 days later
# Protocol: To determine if T cells can be activated in vivo, an in vivo proliferation assay was conducted by mixing CFSE-labeled PBMCs with Colo205 cells and the mixture was implanted subcutaneously onto DKO mice. huA33-BsAb was injected intravenously the next day and the tumors were isolated after another 4 days and analyzed by FACS.
substance,measurement,value
"huA33-BsAb: huA33 IgG with humanized OKT3 scFv fused to light chain C-terminus, N297A and K322A; SEQ ID NO: 19 and 21",CD4(+) and CD8(+) T cells that upregulated CD25 expression while undergoing cell division,around 25%
